Eight compounds from patent US20260102501A1, “ANTI-CANCER NUCLEAR HORMONE RECEPTOR-TARGETING COMPOUNDS” (Nuvation Bio Inc., priority 2022, published 2026) can be followed below.

Residue numbers refer to the chain shown, from its start. Where a name gives a salt, the structure may show the parent alone. Read-outs that look alike come from different tables or passages of the source. Bounds are passed on as bounds.

What is called IC50 is the concentration that inhibits the measured activity by half.

The subject of assay [1] is LNCap cells. Description: Cell viability assay (CellTiterGlo). The format is cell-based. Conditions: Homo sapiens, 144 h. A general note: ATP-based viability assays read luminescence as a measure of living cells.
The test system of assay [2] is IEC6 cells. The experiment in a line: Cell viability assay (CellTiterGlo). Conditions: Rattus norvegicus, IEC-6, 144 h, read-out: IEC-6 (IC50, nM).
Description: Cell viability assay: LNCap, 22Rv1, MCF7, MDAMB361, T47D, and IEC6 cells were seeded at a density of 500-2000 cells/well in 96 well plates, and a ‘T0’ (timepoint 0) was included along with the assay plate. The plates were then incubated at 37° C., 5% CO2 in a cell culture incubator overnight. On the next day, the ‘T0’ plate was assayed using CellTiterGlo (Promega, Inc) according to the manufacturer's instructions. The appropriate compounds were diluted in DMSO and added to the assay plate (final DMSO concentration of 0.1-0.2%) on the next day. The assay plates were incubated for 6 days at 37° C., 5% CO2. After the incubation period, the plates were assayed using CellTiterGlo (Promega, Inc) according to the manufacturer's instructions and luminescence was read on the En Vision plate reader. […] GraphPadPrism was used to analyze the data and determine GI50/IC50 values.
Assay [3] has as its target T1, AR (cytosol from LnCaP cells) (Homo sapiens, UniProt P10275, T878A).
T1 sequence (P10275 1-920 T878A): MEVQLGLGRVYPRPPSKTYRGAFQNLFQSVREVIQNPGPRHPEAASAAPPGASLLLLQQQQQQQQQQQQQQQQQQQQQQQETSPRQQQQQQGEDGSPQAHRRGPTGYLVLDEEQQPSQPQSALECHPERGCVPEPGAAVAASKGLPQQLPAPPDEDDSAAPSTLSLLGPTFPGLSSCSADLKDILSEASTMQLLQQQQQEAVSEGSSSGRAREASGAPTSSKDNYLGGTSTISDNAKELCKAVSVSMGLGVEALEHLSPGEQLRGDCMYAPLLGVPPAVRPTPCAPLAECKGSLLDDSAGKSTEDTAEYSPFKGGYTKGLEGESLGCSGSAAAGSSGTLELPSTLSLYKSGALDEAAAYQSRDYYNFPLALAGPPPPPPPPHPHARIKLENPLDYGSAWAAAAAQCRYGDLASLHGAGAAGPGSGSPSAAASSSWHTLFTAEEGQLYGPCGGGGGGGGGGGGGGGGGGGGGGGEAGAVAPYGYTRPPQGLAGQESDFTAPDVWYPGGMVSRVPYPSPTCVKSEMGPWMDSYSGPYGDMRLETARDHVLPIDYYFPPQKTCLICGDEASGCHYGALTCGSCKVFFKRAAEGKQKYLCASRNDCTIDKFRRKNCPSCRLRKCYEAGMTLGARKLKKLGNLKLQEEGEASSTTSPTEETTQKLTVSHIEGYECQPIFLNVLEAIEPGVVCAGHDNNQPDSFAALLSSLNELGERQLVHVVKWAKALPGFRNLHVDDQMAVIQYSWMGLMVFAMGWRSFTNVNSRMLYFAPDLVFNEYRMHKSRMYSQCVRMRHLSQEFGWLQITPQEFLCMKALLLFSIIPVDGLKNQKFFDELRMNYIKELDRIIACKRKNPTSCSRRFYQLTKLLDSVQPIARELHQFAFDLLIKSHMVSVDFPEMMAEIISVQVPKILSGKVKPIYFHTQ
The experiment in a line: AR binding assay (3H-R1881 displacement).
Description: The plate was then centrifuged at 3000 rpm for 30 minutes at 4° C.

In assay [4] the test system is 22Rv1 cells. The experiment in a line: Cell viability assay (CellTiterGlo). Conditions: Homo sapiens, 22Rv1, 144 h, read-out: 22RV1 (IC50, nM).
Assay [5] has as its target T2, full-length androgen receptor (HEK293 cells stably expressing) (Homo sapiens, UniProt P10275).
T2 sequence (P10275 1-920): T1 sequence (P10275 1-920 T878A) with A878T
Description: AR antagonism assay (luciferase reporter). In general terms: Reporter assays use an easily measured gene product as a stand-in for the process of interest.

Setting [6] is: 6 days incubation, CellTiterGlo, read-out: LNCap (IC50).

For the compound `CC[C@@]1(O)C(=O)OCc2c1cc1n(c2=O)Cc2cc3c(CN4CCN(C(=O)C5CCN(c6ccc(C(=O)N[C@H]7CC[C@H](Oc8ccc(C#N)c(Cl)c8)CC7)nn6)CC5)CC4)c(OC(=O)N(C(C)C)C(C)C)ccc3nc2-1` [Compound 1, (S)-10-((4-(1-(6-(((1r,4r)-4-(3-Chloro-4-cyanophenoxy)cyclohexyl)carbamoyl)pyridazin-3-yl)piperidine-4-carbonyl)piperazin-1-yl)methyl)-4-ethyl-4-hydroxy-3,14-dioxo-3,4,12,14-tetrahydro-1H-pyrano[3′,4′:6,7]indolizino[1,2-b]quinolin-9-yl Diisopropylcarbamate], the IC50 in assay [1] (read-out: LNCap (IC50, nM)) was over 1000 nM; in assay [2], over 1000 nM; in assay [3], 101 to 1000 nM; in assay [4], over 1000 nM; in assay [5] it was over 1000 nM.
On to `CC[C@@]1(O)C(=O)OCc2c1cc1n(c2=O)Cc2cc3c(CN(C)C)c(OC(=O)N4C[C@H](C)N(CC5CCN(c6ccc(C(=O)N[C@H]7CC[C@H](Oc8ccc(C#N)c(Cl)c8C)CC7)nn6)CC5)C[C@H]4C)ccc3nc2-1` [Compound 32, (S)-10-((Dimethylamino)methyl)-4-ethyl-4-hydroxy-3,14-dioxo-3,4,12,14-tetrahydro-1H-pyrano[3′,4′:6,7]indolizino[1,2-b]quinolin-9-yl (2R,5S)-4-((1-(6-(((1r,4r)-4-(3-Chloro-4-cyano-2-methylphenoxy)cyclohexyl)carbamoyl)pyridazin-3-yl)piperidin-4-yl)methyl)-2,5-dimethylpiperazine-1-carboxylate Formate], for which the IC50 in assay [1] (read-out: LNCap (IC50, nM)) was 101 to 1000 nM; in assay [2] it was over 1000 nM; in assay [3], 101 to 1000 nM; in assay [4] it was 101 to 1000 nM; in assay [5], 101 to 1000 nM.
In the case of `CC[C@@]1(O)C(=O)OCc2c1cc1n(c2=O)Cc2cc3c(CN4CCN(C(=O)C5CCN(c6ccc(C(=O)N[C@H]7CC[C@H](Oc8ccc(C#N)c(Cl)c8)CC7)nn6)CC5)CC4)c(OC(=O)N4CCN(C)CC4)ccc3nc2-1` [Compound No. 10, (S)-10-((4-(1-(6-(((1r,4r)-4-(3-Chloro-4-cyanophenoxy)cyclohexyl)carbamoyl)pyridazin-3-yl)piperidine-4-carbonyl)piperazin-1-yl)methyl)-4-ethyl-4-hydroxy-3,14-dioxo-3,4,12,14-tetrahydro-1H-pyrano[3′,4′:6,7]indolizino[1,2-b]quinolin-9-yl 4-Methylpiperazine-1-carboxylate], the IC50 in assay [1] (read-out: LNCap (IC50, nM)) was over 1000 nM; in assay [2], over 1000 nM; in assay [3] it was 10 to 100 nM; in assay [4], over 1000 nM.
For the compound `CC[C@@]1(O)C(=O)OCc2c1cc1n(c2=O)Cc2cc3c(CN(C)C)c(OC(=O)N4CCN(C(=O)C5CCN(c6ccc(C(=O)N[C@H]7CC[C@H](N(C)c8ccc(C#N)c(Cl)c8)CC7)nn6)CC5)CC4)ccc3nc2-1` [Compound No. 11, (S)-10-((Dimethylamino)methyl)-4-ethyl-4-hydroxy-3,14-dioxo-3,4,12,14-tetrahydro-1H-pyrano[3′,4′:6,7]indolizino[1,2-b]quinolin-9-yl 4-(1-(6-(((1r,4r)-4-((3-chloro-4-cyanophenyl)(methyl)amino)-cyclohexyl)carbamoyl)pyridazin-3-yl)piperidine-4-carbonyl)piperazine-1-carboxylate], the IC50 in assay [1] (read-out: LNCap (IC50, nM)) was 10 to 100 nM; in assay [2], 101 to 1000 nM; in assay [3], under 10 nM; in assay [4] it was 10 to 100 nM.
Consider `CC[C@@]1(O)C(=O)OCc2c1cc1n(c2=O)Cc2cc3c(CN4CCN(C(=O)C5CCN(c6ccc(C(=O)N[C@H]7CC[C@H](Oc8ccc(C#N)c(Cl)c8)CC7)nn6)CC5)CC4)c(OC(=O)N4CCC(N5CCCCC5)CC4)ccc3nc2-1` [Compound No. 13, (S)-10-((4-(1-(6-(((1r,4r)-4-(3-Chloro-4-cyanophenoxy)cyclohexyl)carbamoyl)pyridazin-3-yl)piperidine-4-carbonyl)piperazin-1-yl)methyl)-4-ethyl-4-hydroxy-3,14-dioxo-3,4,12,14-tetrahydro-1H-pyrano[3′,4′:6,7]indolizino[1,2-b]quinolin-9-yl [1,4′-bipiperidine]-1′-carboxylate], for which the IC50 was over 1000 nM in assay [1] (read-out: LNCap (IC50, nM)); over 1000 nM in assay [2]; 10 to 100 nM in assay [3]; over 1000 nM in assay [4].
Consider `CC[C@@]1(O)C(=O)OCc2c1cc1n(c2=O)Cc2cc3c(CN4CCN(C(=O)C5CCN(c6ccc(C(=O)N[C@H]7CC[C@H](N(C)c8ccc(C#N)c(Cl)c8)CC7)nn6)CC5)CC4)c(O)ccc3nc2-1` [Compound No. 15, N-((1r,4r)-4-((3-Chloro-4-cyanophenyl)(methyl)amino)cyclohexyl)-6-(4-(4-(((S)-4-ethyl-4,9-dihydroxy-3,14-dioxo-3,4,12,14-tetrahydro-1H-pyrano[3′,4′:6,7]indolizino[1,2-b]quinolin-10-yl)methyl)-piperazine-1-carbonyl)piperidin-1-yl)pyridazine-3-carboxamide], for which the IC50 is 10 to 100 nM in assay [1] (setting [6]), over 1000 nM in assay [2], under 10 nM in assay [3] and 10 to 100 nM in assay [4].
Take `CC[C@@]1(O)C(=O)OCc2c1cc1n(c2=O)Cc2cc3c(CN(C)C)c(OCC4CCN(C(=O)C5CCN(c6ccc(C(=O)N[C@H]7CC[C@H](Oc8ccc(C#N)c(Cl)c8)CC7)nn6)CC5)CC4)ccc3nc2-1` [Compound No. 16, N-((1r,4r)-4-(3-Chloro-4-cyanophenoxy)cyclohexyl)-6-(4-(4-((((S)-10-((dimethylamino)-methyl)-4-ethyl-4-hydroxy-3,14-dioxo-3,4,12,14-tetrahydro-1H-pyrano[3′,4′:6,7]indolizino[1,2-b]quinolin-9-yl)oxy)methyl)piperidine-1-carbonyl)piperidin-1-yl)pyridazine-3-carboxamide]: the IC50 in assay [1] (setting [6]) is 101 to 1000 nM; in assay [2], over 1000 nM; in assay [3] it was 10 to 100 nM; in assay [4], 101 to 1000 nM.
`CC[C@@]1(O)C(=O)OCc2c1cc1n(c2=O)Cc2cc3c(CN(C)C)c(OC(=O)N4C[C@H](C)N(C(=O)C5CCN(c6ccc(C(=O)N[C@H]7CC[C@H](N(C)c8ccc(C#N)c(Cl)c8)CC7)nn6)CC5)C[C@H]4C)ccc3nc2-1` [Compound No. 17, (S)-10-((Dimethylamino)methyl)-4-ethyl-4-hydroxy-3,14-dioxo-3,4,12,14-tetrahydro-1H-pyrano[3′,4′:6,7]indolizino[1,2-b]quinolin-9-yl (2R,5S)-4-(1-(6-(((1r,4r)-4-((3-chloro-4-cyanophenyl)(methyl)-amino)cyclohexyl)carbamoyl)pyridazin-3-yl)piperidine-4-carbonyl)-2,5-dimethylpiperazine-1-carboxylate]: the IC50 in assay [1] (read-out: LNCap (IC50, nM)) was 101 to 1000 nM; in assay [2] it was over 1000 nM; in assay [3], 10 to 100 nM; in assay [4] it was 101 to 1000 nM.
